± gives the expanded uncertainty stated by the source.

The data set can be described thus: refractive index (Na D-line) (dimensionless). The conditions noted are these: 298.15 K; 101.33 kPa; Liquid; Standard Abbe refractometry.
One may read the refractive index as a measure of how strongly the sample bends light. As to `CCC(C)(C)O` [2-methylbutan-2-ol], the refractive index was found to be 1.40219 ± 0.001.
As to `CC(=O)CC(C)C` [4-methylpentan-2-one], the refractive index is recorded as 1.39327 ± 0.001.
Under `CC(C)=O` [acetone] stands 1.35553 ± 0.001; under `O=Cc1ccco1` [2-furaldehyde], 1.52263 ± 0.001; under `O` [water], 1.33249 ± 0.001.

(Values after the NIST ThermoML archive (doi:10.1021/acs.jced.5b00738).)
